Data on 20 molecules can be found in PMC6270837, “Preparation and Biological Properties of Ring-Substituted Naphthalene-1-Carboxanilides” (Molecules, 2014).

Where “and” joins values, the source holds several entries; their conditions need not be identical. Identical values can stand only once. Like-named read-outs stand apart in the source and are kept apart here.

Data set [1] can be described thus: Lipophilicity determination by RP-HPLC (capacity factor, log k). Format: physicochemical. To be noted: end-capped C18, isocratic MeOH 60%/H2O 40%. The procedure:
Lipophilicity is a property that has a major effect on bioavailability, biotransformation as well as pharmacological activity, because drugs cross biological membranes through passive transport, which strongly depends on their lipophilicity. Lipophilicity of the studied compounds was determined by RP‑HPLC as capacity factor logarithm (log k). The procedure was performed under isocratic conditions with methanol as an organic modifier in the mobile phase using an end-capped non-polar C18 stationary RP column. The results of ring-substituted naphthalene-1-carboxanilides 1–8c are shown in Table 1 and illustrated in Figure 1. […] Lipophilicity was also calculated as log P using ACD/Percepta ver. 2012 (Advanced Chemistry Development, Inc., Toronto, ON, Canada).
A HPLC system Agilent 1200 equipped with DAD detector (Agilent, USA) was used. A chromatographic column Symmetry® C18 5 μm, 4.6 × 250 mm, Part No. WAT054275 (Waters Corp., Milford, MA, USA) was used. The HPLC separation process was monitored and evaluated by EZChrom Elite software ver. 3.3.2 (Agilent, USA). Isocratic elution by a mixture of MeOH p.a. (60%) and H2O-HPLC Mili-Q grade (40%) as a mobile phase was used. The total flow of the column was 1.0 mL/min, injection 20 μL, column temperature 40 °C, and sample temperature 10 °C. The detection wavelength 210 nm was chosen. The KI methanolic solution was used for the dead time (tD) determination. Retention times (tR) were measured in minutes. The capacity factors k were calculated according to formula k = (tR − tD)/tD, where tR is the retention time of the solute, whereas tD denotes the dead time obtained using an unretained analyte. Log k, calculated from the capacity factor k, is used as the lipophilicity index converted to log P scale.

Data set [2] in a line: Solubility in PET tested medium. To be noted: PET assay medium, phosphate buffer pH 7.2, DMSO up to 4%. Format: physicochemical. As to the method:
(§1) Chloroplasts were prepared from spinach (Spinacia oleracea L.) according to Masarovicova and Kralova. The inhibition of photosynthetic electron transport (PET) in isolated spinach chloroplasts was determined spectrophotometrically (Genesys 6, Thermo Scientific, USA), using an artificial electron acceptor 2,6-dichlorophenol-indophenol (DCIPP) according to Kralova et al., and the rate of photosynthetic electron transport was monitored as a photoreduction of DCPIP. The measurements were carried out in phosphate buffer (0.02 mol/L, pH 7.2) containing sucrose (0.4 mol/L), MgCl2 (0.005 mol/L) and NaCl (0.015 mol/L). The chlorophyll content was 30 mg/L in these experiments and the samples were irradiated (~100 W/m^2 with 10 cm distance) with a halogen lamp (250 W) using a 4 cm water filter to prevent warming of the samples (suspension temperature 22 °C). The studied compounds were dissolved in DMSO due to their limited water solubility. […] The inhibitory efficiency of the studied compounds was expressed by IC50 values, i.e., by molar concentration of the compounds causing 50% decrease in the oxygen evolution rate relative to the untreated control.

Data set [3] has as its system photosynthetic electron transport (PET) in isolated spinach chloroplasts. Briefly: Inhibition of photosynthetic electron transport (PET) in isolated spinach chloroplasts. It is filed as biochemical, Spinacia oleracea L. The settings on record: DCPIP photoreduction. As to the method: The PET-inhibiting activity was expressed by IC50 value, i.e., compound concentration in mol/L causing 50% inhibition of PET.
as §1

Data set [4] has as its system Mycobacterium avium subsp. paratuberculosis CIT03. Briefly: In vitro antimycobacterial evaluation (MIC/IC90, alamarBlue). The settings on record: for MIC: Mycobacterium avium. It is filed as cell-based. As to the method:
The MIC/IC90 value is routinely and widely used in bacterial assays and is a standard detection limit according to the Clinical and Laboratory Standards Institute.
A well-characterized clinical isolate of Mycobacterium avium subsp. paratuberculosis (CIT03) was grown in Middlebrook broth (MB), supplemented with Oleic-Albumin-Dextrose-Catalase supplement (OADC, Becton, Dickinson and Comp., Franklin Lakes, NJ, USA) and mycobactin J (2 µg/mL). Identification of this isolate was performed using biochemical and molecular protocols. At log phase growth, a culture sample (10 mL) was centrifuged at 15,000 rpm/20 min using a bench top centrifuge (Model CR 4-12, Jouan Inc., Winchester, VA, USA). Following removal of the supernatant, the pellet was washed in fresh Middlebrook 7H9GC broth and re-suspended in fresh supplemented MB (10 mL). The turbidity was adjusted to match McFarland standard No. 1 (3 × 10^8 cfu) with MB broth. A further 1:20 dilution of the culture was then performed in MB broth. The antimicrobial susceptibility of the mycobacterial species was investigated in a 96-well plate format. In these experiments, sterile deionized water (300 µL) was added to all outer-perimeter wells of the plates to minimize evaporation of the medium in the test wells during incubation. Each evaluated compound (100 µL) was incubated with the mycobacterial species (100 µL). Dilutions of each compound were prepared in duplicate. For all synthesized compounds, final concentrations ranged from 1,000 µg/mL to 8 µg/mL. All compounds were prepared in DMSO and subsequent dilutions were made in supplemented MB. The plates were sealed with parafilm and incubated at 37 °C for 11 days.
Following incubation, a 10% addition of alamarBlue (AbD Serotec, Kidlington, UK) was mixed into each well and readings at 570 nm and 600 nm were taken, initially for background subtraction and subsequently after 24 h re-incubation. […] For non-interfering compounds, a blue colour in the well was interpreted as an absence of growth and a pink colour was scored as growth. Furthermore percent reduction of alamarBlue was calculated to generate quantitative data on cell viability during exposure to antimycobacterial compounds over a period of 5 days. The formula used to determine percent reduction of alamarBlue has been standardized for colorimetric analysis by Abd Serotec.
The MIC value is routinely and widely used in bacterial assays and is a standard detection limit according to the Clinical and Laboratory Standards Institute.
A general note: Alamar Blue is a resazurin reagent that responds to reducing activity.

The mark [5] stands for this setting: 264 h, clinical isolate CIT03, 11 days at 37 °C, alamarBlue, MIC = 90% or greater reduction of growth, read-out: MAP MIC/IC90.

On to `O=C(Nc1ccccc1C(F)(F)F)c1cccc2ccccc12` [Compound 7a, N-[2-(Trifluoromethyl)phenyl]naphthalene-1-carboxamide], for which the log k in data set [1] was found to be 0.7595. Also, in data set [2], the “solubility in tested medium (PET experiments)” value (“solubility in tested medium” below) is “precipitation”.
`O=C(Nc1ccc(Br)cc1)c1cccc2ccccc12` [Compound 6c, N-(4-Bromophenyl)naphthalene-1-carboxamide]: in data set [3], the IC50 (commonly the concentration needed to halve the response being measured) was 365 µM. In data set [4] (setting [5]), the MIC amounted to 184 µM. For the same molecule, the log k in data set [1] is recorded as 0.9985. Besides, the “solubility in tested medium” value in data set [2] is recorded as “limited solubility”.
In data set [3], `O=C(Nc1ccccc1[N+](=O)[O-])c1cccc2ccccc12` [Compound 8a, N-(2-Nitrophenyl)naphthalene-1-carboxamide] returned an IC50 of 476 µM. Also, in data set [1], the log k is given as 0.9090. Moreover, in data set [2], the “solubility in tested medium” value is on record as “limited solubility”.
As for `O=C(Nc1cccc(C(F)(F)F)c1)c1cccc2ccccc12` [Compound 7b, N-[3-(Trifluoromethyl)phenyl]naphthalene-1-carboxamide], in data set [3], the IC50 came out at 114 µM. This molecule also registered a log k in data set [1] of 1.0862.
As for `CN(C)C(=O)Nc1ccc(Cl)c(Cl)c1` [DCMU, 3-(3,4-dichlorophenyl)-1,1-dimethylurea, reference compound], the IC50 in data set [3] is ~1.9 µM and 1.9 µM.
With `O=C(Nc1ccc(Cl)cc1)c1cccc2ccccc12` [Compound 5c, N-(4-Chlorophenyl)naphthalene-1-carboxamide], the midpoint of inhibition in data set [3], the IC50, lay at 102 µM. The molecule also had a log k in data set [1] of 0.9223.
Take `O=C(Nc1ccc(C(F)(F)F)cc1)c1cccc2ccccc12` [Compound 7c, N-[4-(Trifluoromethyl)phenyl]naphthalene-1-carboxamide]: in data set [3], the IC50 was found to be 59 µM. The MIC in data set [4] (setting [5]) worked out at 793 µM. In data set [1], this molecule returned a log k of 1.1480.
As to `COc1ccc(NC(=O)c2cccc3ccccc23)cc1` [Compound 2c, N-(4-Methoxyphenyl)naphthalene-1-carboxamide], the log k in data set [1] was 0.4953.
On to `O=C(Nc1cccc([N+](=O)[O-])c1)c1cccc2ccccc12` [Compound 8b, N-(3-Nitrophenyl)naphthalene-1-carboxamide], for which the IC50 in data set [3] is 492 µM. The log k in data set [1] is reported as 0.8155. Moreover, in data set [2], the “solubility in tested medium” value is “limited solubility”.
`O=C(Nc1ccccc1Br)c1cccc2ccccc12` [Compound 6a, N-(2-Bromophenyl)naphthalene-1-carboxamide] displayed a log k in data set [1] of 0.8892. Further, in data set [2], the “solubility in tested medium” value is listed as “precipitation”.
In data set [1], `O=C(Nc1ccc(F)cc1)c1cccc2ccccc12` [Compound 4c, N-(4-Fluorophenyl)naphthalene-1-carboxamide] yielded a log k of 0.6315. Also, the “solubility in tested medium” value in data set [2] is recorded as “precipitation”.
Take `NNC(=O)c1ccncc1` [INH, isoniazid, reference compound]: the MIC in data set [4] (setting [5]) worked out at 1820 µM.
For the molecule `O=C(Nc1ccc([N+](=O)[O-])cc1)c1cccc2ccccc12` [Compound 8c, N-(4-Nitrophenyl)naphthalene-1-carboxamide], it took 129 µM to reach half-maximal inhibition in data set [3] (IC50). This molecule displayed a log k in data set [1] of 0.7328.
In the case of `Cc1ccccc1NC(=O)c1cccc2ccccc12` [Compound 3a, N-(2-Methylphenyl)naphthalene-1-carboxamide], the log k in data set [1] stood at 0.5309.
As to `O=C(Nc1ccccc1F)c1cccc2ccccc12` [Compound 4a, N-(2-Fluorophenyl)naphthalene-1-carboxamide], the log k in data set [1] is 0.5592. In addition, the “solubility in tested medium” value in data set [2] is listed as “precipitation”.
In the case of `CO[C@H]1/C=C/O[C@@]2(C)Oc3c(C)c(O)c4c(O)c(c(/C=N/N5CCN(C)CC5)c(O)c4c3C2=O)NC(=O)/C(C)=C\C=C\[C@H](C)[C@H](O)[C@@H](C)[C@@H](O)[C@@H](C)[C@H](OC(C)=O)[C@@H]1C` [RIF, rifampicin, reference compound], the MIC turned out to be 109 µM in data set [4] (264 h, read-out: MAP MIC/IC90) and 90 µg/mL in data set [4] (clinical isolate CIT03, read-out: MIC). For the same molecule, in data set [4] (clinical isolate CIT03, 11 days at 37 °C, alamarBlue, MIC = 90% or greater reduction of growth), the “MAP MIC/IC90” value was 109 µmol/L.
Consider `O=C(Nc1ccccc1Cl)c1cccc2ccccc12` [Compound 5a, N-(2-Chlorophenyl)naphthalene-1-carboxamide], for which, in data set [1], the log k was 0.8322. Moreover, in data set [2], the “solubility in tested medium” value was “precipitation”.
As for `O=C(Nc1cccc(Br)c1)c1cccc2ccccc12` [Compound 6b, N-(3-Bromophenyl)naphthalene-1-carboxamide], in data set [3], the IC50 turned out to be 278 µM. For the same molecule, in data set [1], the log k is reported as 1.0047. Besides, the “solubility in tested medium” value in data set [2] is reported as “limited solubility”.
On to `O=C(Nc1ccccc1)c1cccc2ccccc12` [Compound 1, N-Phenylnaphthalene-1-carboxamide], for which the log k in data set [1] stood at 0.5620.
In turn, `O=C(Nc1cccc(Cl)c1)c1cccc2ccccc12` [Compound 5b, N-(3-Chlorophenyl)naphthalene-1-carboxamide] gave a half-inhibitory concentration (IC50) in data set [3] of 107 µM. Besides, the log k in data set [1] amounted to 0.9357.
